Reference: ChEMBL document CHEMBL1221373, “Lactarane sesquiterpenoids from Lactarius subvellereus and their cytotoxicity” (Bioorg Med Chem Lett, 2010)

Legend:
Type in all cases: functional, cell-based
A549 = assay: Cytotoxicity against human A549 cells by SRB assay
SK-OV-3 = assay: Cytotoxicity against human SKOV3 cells by SRB assay
SK-MEL-2 = assay: Cytotoxicity against human SK-MEL-2 cells by SRB assay
HCT-15 = assay: Cytotoxicity against human HCT15 cells by SRB assay

| Structure (SMILES) | IC50 (A549) [µM] | IC50 (SK-OV-3) [µM] | IC50 (SK-MEL-2) [µM] | IC50 (HCT-15) [µM] |
| --- | --- | --- | --- | --- |
| CC1(C)C[C@@H]2[C@H]([C@H]1O)[C@@](C)(O)CC1=C(C(=O)OC1)[C@H]2O [5-DESOXYLACTAROLIDE B] | 17.9 | > 30 | > 30 | 29.3 |
| COc1cccc2c1C(=O)c1c(O)c3c(c(O)c1C2=O)C[C@@](O)(C(=O)CO)C[C@@H]3O[C@H]1C[C@H](N)[C@H](O)[C@H](C)O1 [DOXORUBICIN] |  | 0.001 | 0.002 | 0.028 |
| CC1(C)C[C@H]2[C@H](O)c3cocc3C[C@](C)(O)[C@H]2C1 [FURANDIOL] | > 30 | > 30 | > 30 | > 30 |
| CC1(C)C[C@H]2[C@H](O)C3=C(C[C@](C)(O)[C@H]2C1)C(=O)OC3O (stereo partly specified) [LACTAROLIDE A] | 22.9 | > 30 | 28.3 | 28.6 |
| CC1(C)C[C@H]2[C@H](O)C3=C(C[C@](C)(O)[C@H]2C1)C(=O)OC3 [LACTARORUFIN A] | 27 | > 30 | > 30 | 20.9 |
| C[C@H]1CC2=C(COC2=O)C[C@@H]2[C@@H](O)[C@](C)(CO)C[C@@]21O [SUBVELLEROLACTONES B] | 26.5 | > 30 | 18.3 | 14.2 |
| C[C@@H]1[C@@H]2C(=CC3=C(C(=O)O[C@@H]3O)[C@@H]1O)CC(C)(C)[C@@H]2O [SUBVELLEROLACTONES D] | 25.1 | > 30 | > 30 | 17.8 |
| C[C@@H]1[C@@H]2C(=CC3=C(C(=O)O[C@H]3O)[C@@H]1O)CC(C)(C)[C@@H]2O [SUBVELLEROLACTONES E] | 19.6 | > 30 | > 30 | 28.7 |
